Assay results taken from US8729089B2 (Gilead Sciences, Inc., priority 2006, dated 2014).

Key:
[1] = CC50 assay (CellTiter-Glo) in Huh-7 HCV replicon cells; format: cell-based, human; details: human, 3 days incubation, CellTiter-Glo readout
Method: (§1) The anti-HCV activity of the pyrido[3,2-d]pyrimidine derivatives of this invention was tested in a human hepatoma Huh-7 cell line harboring a HCV replicon. The assay comprised the following steps:
(§2) Step 1: Compound Preparation and Serial Dilution
(§3) • 1. for water soluble pyrido[3,2-d]pyrimidine derivatives, a volume of 500 μL of solution in cell media (DMEM, 10% FBS, P/S, L-Glutamine) was prepared with a concentration being twice the concentration of the starting final serial dilution concentration. A volume of 150 μL of the solution was added to the pre-specified wells in column 1 of a 96-well cell culture plate (PerkinElmer, white plate, cat. #6005181, for EC50 assay; black plate, cat. #6005182 for CC50 assay). The rest of the plate, columns 2-12, was filled with 100 μL of cell media. The plate was then placed on a Precision 2000 Workstation to start the serial dilution. Compounds were diluted three times each step from column 1 to column 10. Column 11 was used as a blank control (no compound added). • 2. for pyrido[3,2-d]pyrimidine derivatives requiring DMSO to dissolve, serial dilution is performed in 50% DMSO in a 384-well plate. A solution containing a compound at 100-fold concentration of the starting final serial dilution concentration was prepared in 50% DMSO and added to the pre-specified wells in column 1 of a polypropylene 384-well plate. The plate was then placed on a Precision 2000 Workstation to start the serial dilution. After the serial dilution, a volume of 2 μL of the solution was transferred from the 384-well plate to a 96-well cell culture plate containing 100 μL of cell media on a Biomek FX Workstation. The DMSO concentration in the final assay condition was 0.5% after cells are added to the plate and the total volume in each well is brought to 200 μL.
(§4) Step 2: to each well of the serial dilution plate prepared above, 100 μL of cell media containing 6000 suspended Huh-7 HCV replicon cells was added with a Multidrop workstation. The plates were incubated for 3 days at 37° C. with 5% CO2.
(§5) • a) for the EC50 assay, the media in a 96-well cell culture plate was aspirated with a Biotek EL405 plate-washer. A volume of 200 μL of a solution containing a 1:1 mixture of cell-lysis buffer (Promega, Luciferase Cell Culture Lysis 5× Reagent, cat. #E1531) and luciferase substrate solution (Promega, Luciferase Assay, cat.#E4550) was added to each well of the plate with Multidrop. The plate was incubated for 30 minutes at room temperature before the luminescence signal was measured with a TopCount plate-reader. • b) for the CC50 assay, a volume of 100 μL of pre-mixed CellTiter-Glo (Promega, cat.#G7572) solution is added directly to the cell culture in each well of the plate and the luminescence signal is measured with a TopCount plate-reader after 10 minutes of incubation at room temperature.

[2] = tested on: HCV replicon in human hepatoma Huh-7 cell line; assay: Anti-HCV replicon assay (EC50, luciferase); format: cell-based; details: Hepatitis C virus, Huh-7, 72 h
Method: as §1, §2, §3, §4, §5

Structure (SMILES)	CC50 at 3 days [1] [µM]	EC50 [2] [µM]
CCOc1nc(NCc2ccc(F)cc2)nc2ccc(-c3ccc(NC(=O)NC4CC4)cc3)nc12 [Example 74, 1-Cyclopropyl-3-{4-[4-ethoxy-2-(4-fluoro-benzylamino)-pyrido[3,2-d]pyrimidin-6-yl]-phenyl}-urea]	5 to 25	< 0.1
CCOc1nc(NCc2ccc(F)cc2)nc2ccc(-c3ccc(NC(N)=O)cc3)nc12 [Example 75, {4-[4-Ethoxy-2-(4-fluoro-benzylamino)-pyrido[3,2-d]pyrimidin-6-yl]-phenyl}-urea]	> 25	< 0.1
CCOc1nc(NCc2ccc(F)cc2)nc2ccc(-c3ccc(N4CC(O)CC4=O)cc3)nc12 (centres unmarked) [Example 76, 1-{4-[4-Ethoxy-2-(4-fluoro-benzylamino)-pyrido[3,2-d]pyrimidin-6-yl]-phenyl}-4-hydroxy-pyrrolidin-2-one]	5 to 25	< 0.1
CCOc1nc(NCc2ccc(F)cc2)nc2ccc(-c3ccc4[nH]ncc4c3)nc12 [Example 77, [4-Ethoxy-6-(1H-indazol-5-yl)-pyrido[3,2-d]pyrimidin-2-yl]-(4-fluoro-benzyl)-amine]	5 to 25	< 0.1
CCOc1nc(NCc2ccc(F)cc2)nc2ccc(-c3ccc4c(c3)CC(=O)N4)nc12 [Example 78, 5-[4-Ethoxy-2-(4-fluoro-benzylamino)-pyrido[3,2-d]pyrimidin-6-yl]-1,3-dihydro-indol-2-one]	5 to 25	< 0.1
CCOc1nc(NCc2ccc(F)cc2)nc2ccc(-c3ccc(NC(=O)C4CC4)nc3)nc12 [Example 79, Cyclopropanecarboxylic acid {5-[4-ethoxy-2-(4-fluoro-benzylamino)-pyrido[3,2-d]pyrimidin-6-yl]-pyridin-2-yl}-amide]	5 to 25	< 0.1
CCOc1nc(NCc2ccc(F)cc2)nc2ccc(-c3cnc(NC(=O)C4CC4)nc3)nc12 [Example 80, Cyclopropanecarboxylic acid {5-[4-ethoxy-2-(4-fluoro-benzylamino)-pyrido[3,2-d]pyrimidin-6-yl]-pyrimidin-2-yl}-amide]	5 to 25	< 0.1
CCOc1nc(NCc2ccc(F)cc2)nc2ccc(-c3cccc(NS(=O)(=O)CCN4CCCC4)c3)nc12 [Example 81, 2-Pyrrolidin-1-yl-ethanesulfonic acid {3-[4-ethoxy-2-(4-fluoro-benzylamino)-pyrido[3,2-d]pyrimidin-6-yl]-phenyl}-amide]	< 5	< 0.1
CCOc1nc(NCc2ccc(F)cc2)nc2ccc(-c3cccc(NS(=O)(=O)C4CC4)c3)nc12 [Example 82, Cyclopropanesulfonic acid {3-[4-ethoxy-2-(4-fluoro-benzylamino)-pyrido[3,2-d]pyrimidin-6-yl]-phenyl}-amide]	< 5	< 0.1
CCOc1nc(NCc2ccc(F)cc2)nc2ccc(-c3ccc(S(N)(=O)=O)cc3)nc12 [Example 83, 4-[4-Ethoxy-2-(4-fluoro-benzylamino)-pyrido[3,2-d]pyrimidin-6-yl]-benzenesulfonamide]	5 to 25	< 0.1
CCOc1nc(NCc2ccc(F)cc2)nc2ccc(-c3cccc(NS(=O)(=O)N(C)C)c3)nc12 [Example 84, N′-{3-[4-Ethoxy-2-(4-fluoro-benzylamino)-pyrido[3,2-d]pyrimidin-6-yl]-phenyl}-N.N-dimethyl methanesulfonyl urea]	< 5	< 0.1
CCOc1nc(NCc2ccc(F)cc2)nc2ccc(-c3cccc(S(N)(=O)=O)c3)nc12 [Example 85, 3-[4-Ethoxy-2-(4-fluoro-benzylamino)-pyrido[3,2-d]pyrimidin-6-yl]-benzenesulfonamide]	5 to 25	< 0.1
CCOc1nc(NCc2ccc(F)cc2)nc2ccc(-c3ccc(N4CCC(O)C4=O)cc3)nc12 (centres unmarked) [Example 86, 1-{4-[4-Ethoxy-2-(4-fluoro-benzylamino)-pyrido[3,2-d]pyrimidin-6-yl]-phenyl}-3-hydroxy-pyrrolidin-2-one]	< 5	< 0.1
CCOc1nc(NCc2ccc(F)cc2)nc2ccc(-c3ccc(F)nc3)nc12 [Example 87, [4-Ethoxy-6-(6-fluoro-pyridin-3-yl)-pyrido[3,2-d]pyrimidin-2-yl]-(4-fluoro-benzyl)-amine]	< 5	< 0.1
CCOc1nc(NCc2ccc(F)cc2)nc2ccc(-c3ccc(NC(=O)[C@@H]4C[C@@H](O)CN4)cc3)nc12 [Example 88, 4-Hydroxy-pyrrolidine-2-carboxylic acid {4-[4-ethoxy-2-(4-fluoro-benzylamino)-pyrido[3,2-d]pyrimidin-6-yl]-phenyl}-amide]	5 to 25	< 0.1
CCOc1nc(NCc2ccc(F)cc2)nc2ccc(-c3ccc(NC(=O)[C@@H]4CCCN4)cc3)nc12 [Example 89, Pyrrolidine-2-carboxylic acid {4-[4-ethoxy-2-(4-fluoro-benzylamino)-pyrido[3,2-d]pyrimidin-6-yl]-phenyl}-amide]	< 5	< 0.1
CCOc1nc(NCc2ccc(F)cc2)nc2ccc(-c3ccc(NC(=O)[C@H]4CCNC4)c(F)c3)nc12 [Example 90, Pyrrolidine-3-carboxylic acid {4-[4-ethoxy-2-(4-fluoro-benzylamino)-pyrido[3,2-d]pyrimidin-6-yl]-2-fluoro-phenyl}-amide]	< 5	< 0.1
CCOc1nc(NCc2ccc(F)cc2)nc2ccc(-c3ccc(NC(=O)[C@H]4CCNC4)cc3)nc12 [Example 91, Pyrrolidine-3-carboxylic acid {4-[4-ethoxy-2-(4-fluoro-benzylamino)-pyrido[3,2-d]pyrimidin-6-yl]-phenyl}-amide]	< 5	< 0.1
CCOc1nc(NCc2ccc(F)cc2)nc2ccc(-c3ccc(NC(=O)OCCN4CCCC4)cc3)nc12 [Example 92, {4-[4-Ethoxy-2-(4-fluoro-benzylamino)-pyrido[3,2-d]pyrimidin-6-yl]-phenyl}-carbamic acid 2-pyrrolidin-1-yl-ethyl ester]	< 5	< 0.1
CCOc1nc(NCc2ccc(F)cc2)nc2ccc(-c3ccc(NC(=O)NCCN4CCCC4)cc3)nc12 [Example 93, 1-{4-[4-Ethoxy-2-(4-fluoro-benzylamino)-pyrido[3,2-d]pyrimidin-6-yl]-phenyl}-3-(2-pyrrolidin-1-yl-ethyl)-urea]	< 5	< 0.1
CCOc1nc(NCc2ccc(F)cc2)nc2ccc(-c3ccc(C(=O)NC(C)(C)CO)cc3)nc12 [Example 94, 4-[4-Ethoxy-2-(4-fluoro-benzylamino)-pyrido[3,2-d]pyrimidin-6-yl]-N-(2-hydroxy-1,1-dimethyl-ethyl)-benzamide]	5 to 25	< 0.1
CCOc1nc(NCc2ccc(F)cc2)nc2ccc(-c3ccc(C(=O)NC(C)(C)CN4CCCC4)cc3)nc12 [Example 95, N-(1,1-Dimethyl-2-pyrrolidin-1-yl-ethyl)-4-[4-ethoxy-2-(4-fluoro-benzylamino)-pyrido[3,2-d]pyrimidin-6-yl]-benzamide]	< 5	< 0.1
CCOc1nc(NC2(c3ccc(F)cc3)CC2)nc2ccc(-c3ccc(C(=O)NC(C)(C)CN4CCCC4)cc3)nc12 [Example 96, N-(1,1-Dimethyl-2-pyrrolidin-1-yl-ethyl)-4-{4-ethoxy-2-[1-(4-fluoro-phenyl)-cyclopropylamino]-pyrido[3,2-d]pyrimidin-6-yl}-benzamide]	< 5	< 0.1
CCOc1nc(NCc2ccc(F)cc2)nc2ccc(-c3ccc(CO)o3)nc12 [Example 97, {5-[4-Ethoxy-2-(4-fluoro-benzylamino)-pyrido[3,2-d]pyrimidin-6-yl]-furan-2-yl}-methanol]	5 to 25	< 0.1
CCOc1nc(NCc2ccc(F)cc2)nc2ccc(-c3ccc(C(=O)NC4(C#N)CC4)cc3)nc12 [Example 98, N-(1-Cyano-cyclopropyl)-4-[4-ethoxy-2-(4-fluoro-benzylamino)-pyrido[3,2-d]pyrimidin-6-yl]-benzamide]	> 25	< 0.1
